Among the data in patent publication US20240261274A1, “TREATMENT OF MYC-DRIVEN CANCERS WITH GSPT1 DEGRADERS” (MONTE ROSA THERAPEUTICS, INC., priority 2021, published 2024) are IC50 values, retold here.

A value given as a limit tells only on which side of the number the result lay.

The target in the first assay is T1, Full length wild-type cereblon CRBN (Homo sapiens, UniProt Q96SW2).
T1 construct: Full length wild-type cereblon CRBN (80.0 nM, 10 μL) was incubated in assay buffer
T1 sequence (Q96SW2 whole entry): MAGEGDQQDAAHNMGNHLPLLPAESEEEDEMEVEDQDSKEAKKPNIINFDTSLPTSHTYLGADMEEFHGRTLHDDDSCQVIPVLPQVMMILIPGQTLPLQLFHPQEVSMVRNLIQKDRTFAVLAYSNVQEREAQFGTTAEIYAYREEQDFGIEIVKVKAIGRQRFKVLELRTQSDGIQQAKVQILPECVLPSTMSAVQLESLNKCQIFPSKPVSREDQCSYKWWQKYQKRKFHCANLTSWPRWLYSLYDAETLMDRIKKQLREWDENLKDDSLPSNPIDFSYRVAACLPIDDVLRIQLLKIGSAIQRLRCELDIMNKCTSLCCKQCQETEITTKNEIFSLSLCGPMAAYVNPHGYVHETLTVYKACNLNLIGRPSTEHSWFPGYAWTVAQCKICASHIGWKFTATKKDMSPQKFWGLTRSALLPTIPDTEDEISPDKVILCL
The assay is described as follows: Fluorescence polarization (FP) assay indicating cereblon binding. The following applies: Table 3B; read-out: rFP IC50. How it is done:
Compound activity was monitored in a fluorescence polarization (FP) homogeneous assay using 1-[5-({2-[2-(2-{[2-(2,6-dioxopiperidin-3-yl)-1,3-dioxo-2,3-dihydro-1H-isoindol-4-yl]oxy}acetamido)ethoxy]ethyl}carbamoyl)pentyl]-3,3-dimethyl-2-[(1E,3E)-5-[(2E)-1,3,3-trimethyl-5-sulfo-2,3-dihydro-1H-indol-2-ylidene]penta-1,3-dien-1-yl]-3H-indol-1-ium-5-sulfonate as a fluorescent probe. Unless otherwise stated, all reagents were purchased from Sigma Aldrich. Enzymatic reactions were conducted in Perkin-Elmer Black 384 well ProxiPlate Plus (catalogue no. 6008269) in 10 μL total volume. Full length wild-type cereblon CRBN (80.0 nM, 10 μL) was incubated in assay buffer containing 20 mM HEPES (pH 8.0), […], 0.5 mM TCEP and 0.05% Tween 20 in the presence or absence of compound (300 nL). Inhibitors were stored as 10 mM DMSO stocks in an inert environment (low humidity, dark, low oxygen, room temperature) using the Storage Pod System. Compounds and DMSO were dispensed using the Echo E5XX (Labcyte Inc. USA) to give concentrations from 300 to 0.937 or 3000 to 9.3 nM in a 12 data point curve. […] Following incubation at room temperature for 30 min, the assay was initiated by dispensing the probe to a final concentration of 5 nM (2.5 nL of a 20 μM stock) using the Echo E5XX. FP was measured after a period of 12 hours using a Pherastar plate reader (BMG Labtech, Germany) exciting at 590 nm and measuring the amount of parallel and perpendicular light at 675 nm. The FP signal was subsequently normalized to the no-compound control (i.e., DMSO). Analysis and IC50 values were derived using Dotmatics (Dotmatics UK) software.
As for `O=C1CCC(N2Cc3c(F)cc(COC(=O)Nc4cc(Cl)cc(Cl)c4)cc3C2=O)C(=O)N1` (stereo not drawn) [Compound 528], the IC50 is over 1900 nM.
Still for that read-out and setting: next, `CC(C)(C)c1cccc(NC(=O)OCc2cc(F)c3c(c2)C(=O)N(C2CCC(=O)NC2=O)C3)c1` (stereo not drawn) [Compound 525]: over 1900 nM; `COc1cc(COC(=O)Nc2cccc(C(C)(C)C)c2)cc2c1CN(C1CCC(=O)NC1=O)C2=O` (stereo not drawn) [Compound 554]: at most 600 nM.
The same measure, in the same setting: for `Cc1cc(C)cc(NC(=O)OCc2cc(F)c3c(c2)C(=O)N(C2CCC(=O)NC2=O)C3)c1` (stereo not drawn) [Compound 531] the value was over 1900 nM; for `O=C1CCC(N2Cc3c(F)cc(COC(=O)Nc4ccc(-c5ccccn5)cc4)cc3C2=O)C(=O)N1` (stereo not drawn) [Compound 511], at most 600 nM; for `Cc1ccccc1-c1ccc(NC(=O)OCc2cc(F)c3c(c2)C(=O)N(C2CCC(=O)NC2=O)C3)cn1` (stereo not drawn) [Compound 519], at most 600 nM.
Same read-out and setting: for `Cc1ccc(NC(=O)OCc2cc(F)c3c(c2)C(=O)N(C2CCC(=O)NC2=O)C3)cc1Cl` (stereo not drawn) [Compound 503] the value was over 1900 nM; for `COc1cc(COC(=O)Nc2ccc(C3(C)CC3)cc2)cc2c1CN(C1CCC(=O)NC1=O)C2=O` (stereo not drawn) [Compound 540], at most 600 nM.
Take `COc1cc(COC(=O)Nc2cnc(-c3ccccc3)c(C)c2)cc2c1CN(C1CCC(=O)NC1=O)C2=O` (stereo not drawn) [Compound 559]: the IC50 was at most 600 nM.
The same measure, in the same setting: next, `Cc1ccc(NC(=O)OCc2cc(F)c3c(c2)C(=O)N(C2CCC(=O)NC2=O)C3)cc1OC(F)F` (stereo not drawn) [Compound 535]: over 1900 nM; `O=C1CCC(N2Cc3c(F)cc(COC(=O)Nc4cc(-c5ccccc5)ccn4)cc3C2=O)C(=O)N1` (stereo not drawn) [Compound 524]: over 1900 nM; `COc1cc(COC(=O)Nc2ccc(C(C)(C)C)nc2)cc2c1CN(C1CCC(=O)NC1=O)C2=O` (stereo not drawn) [Compound 544]: at most 600 nM.
On the same count and under the same terms, for `Cc1ccc(NC(=O)OCc2cc(Cl)c3c(c2)C(=O)N(C2CCC(=O)NC2=O)C3)cc1Cl` (stereo not drawn) [Compound 504] the value was over 1900 nM; for `COc1cc(COC(=O)Nc2ccc(N3CCCCC3C)nc2)cc2c1CN(C1CCC(=O)NC1=O)C2=O` (stereo not drawn) [Compound 538], at most 600 nM.
On to `Cc1ccc(NC(=O)OCc2cc(Br)c3c(c2)C(=O)N(C2CCC(=O)NC2=O)C3)cc1Cl` (stereo not drawn) [Compound 501], for which the IC50 is over 1900 nM.
In the case of `O=C1CCC(N2Cc3c(F)cc(COC(=O)Nc4cc(Cl)cc(OC(F)F)c4)cc3C2=O)C(=O)N1` (stereo not drawn) [Compound 534], the half-maximal inhibitory concentration (IC50) was over 1900 nM.
Same read-out and setting: for `Cc1ccc(NC(=O)OCc2cc(C#N)c3c(c2)C(=O)N(C2CCC(=O)NC2=O)C3)cc1Cl` (stereo not drawn) [Compound 502] the value was over 1900 nM.
Take `CC1(c2ccc(NC(=O)OCc3cc(F)c4c(c3)C(=O)N(C3CCC(=O)NC3=O)C4)cc2)CC1` (stereo not drawn) [Compound 513]: the IC50 was over 1900 nM.
On the same count and under the same terms, next, `O=C1CCC(N2Cc3c(F)cc(COC(=O)Nc4cc(F)cc(OC(F)(F)F)c4)cc3C2=O)C(=O)N1` (stereo not drawn) [Compound 512]: over 1900 nM; `COc1cc(COC(=O)Nc2cccc(OC(F)F)c2)cc2c1CN(C1CCC(=O)NC1=O)C2=O` (stereo not drawn) [Compound 553]: at most 600 nM.
The same measure, in the same setting: for `COc1cc(COC(=O)Nc2ccc3c(c2)OCC3(C)C)cc2c1CN(C1CCC(=O)NC1=O)C2=O` (stereo not drawn) [Compound 537] the value was at most 600 nM.
For `Cc1ccc(NC(=O)OCc2ccc3c(c2F)C(=O)N(C2CCC(=O)NC2=O)C3)cc1Cl` (stereo not drawn) [Compound 571], the IC50 is over 1900 nM.
The same measure, in the same setting: for `COc1cc(COC(=O)Nc2ccc(-c3ccccc3C)nc2)cc2c1CN(C1CCC(=O)NC1=O)C2=O` (stereo not drawn) [Compound 560] the value was at most 600 nM; for `O=C1CCC(N2Cc3c(F)cc(COC(=O)Nc4ccc(-c5ccccc5)nc4)cc3C2=O)C(=O)N1` (stereo not drawn) [Compound 508], over 1900 nM.
The same measure, in the same setting: for `COc1cc(COC(=O)Nc2cccc(OC3CC3)c2)cc2c1CN(C1CCC(=O)NC1=O)C2=O` (stereo not drawn) [Compound 558] the value was at most 600 nM; for `O=C1CCC(N2Cc3c(F)cc(COC(=O)Nc4cccc(OC(F)(F)F)c4)cc3C2=O)C(=O)N1` (stereo not drawn) [Compound 515], over 1900 nM.
As to `O=C1CCC(N2Cc3c(F)cc(COC(=O)Nc4cc(F)cc(OC(F)F)c4)cc3C2=O)C(=O)N1` (stereo not drawn) [Compound 506], the IC50 is over 1900 nM.
Regarding `COc1cc(COC(=O)Nc2cc(C)cc(C)c2)cc2c1CN(C1CCC(=O)NC1=O)C2=O` (stereo not drawn) [Compound 552], the IC50 is at most 600 nM.
As to `COc1cc(COC(=O)Nc2cc(-c3ccccc3)ccn2)cc2c1CN(C1CCC(=O)NC1=O)C2=O` (stereo not drawn) [Compound 556], the IC50 is at most 600 nM.

The same assay, now with this note: bound stated; read-out: IC50 value.
`COc1ccccc1CNC(=O)OCc1ccc2c(c1)C(=O)N(C1CCC(=O)NC1=O)C2` (stereo not drawn) [Compound 297]: the IC50 is under 1100 nM.
Regarding `CC1COc2cc(NC(=O)OCc3ccc4c(c3)C(=O)N(C3CCC(=O)NC3=O)C4)ccc21` (stereo not drawn) [Compound 303], the IC50 is under 1100 nM.

The same assay, now with this note: bounds stated; read-out: IC50 value.
For `CCOc1ccc(NC(=O)NCc2ccc3c(c2)C(=O)N(C2CCC(=O)NC2=O)C3)cc1` (stereo not drawn) [Compound 16], the IC50 is under 600 nM.
The same measure, in the same setting: next, `O=C1CCC(N2Cc3ccc(CNC(=O)Nc4ccccc4C(F)(F)F)cc3C2=O)C(=O)N1` (stereo not drawn) [Compound 49]: under 600 nM; `O=C1CCC(N2Cc3ccc(CNC(=O)Nc4cccc(Cl)c4Cl)cc3C2=O)C(=O)N1` (stereo not drawn) [Compound 50]: under 600 nM.
Same read-out and setting: for `O=C1CCC(N2Cc3ccc(CNC(=O)Nc4ccccc4F)cc3C2=O)C(=O)N1` (stereo not drawn) [Compound 48] the value was under 600 nM.
Still for that read-out and setting: next, `CC(C)c1ccc(NC(=O)NCc2ccc3c(c2)C(=O)N(C2CCC(=O)NC2=O)C3)cc1` (stereo not drawn) [Compound 57]: under 600 nM; `COc1ccccc1NC(=O)NCc1ccc2c(c1)C(=O)N(C1CCC(=O)NC1=O)C2` (stereo not drawn) [Compound 7]: under 600 nM.
In the case of `O=C1CCC(N2Cc3ccc(CNC(=O)NCCc4ccccc4)cc3C2=O)C(=O)N1` (stereo not drawn) [Compound 27], the IC50 was under 600 nM.
Still for that read-out and setting: next, `Cc1cccc(NC(=O)NCc2ccc3c(c2)C(=O)N(C2CCC(=O)NC2=O)C3)c1` (stereo not drawn) [Compound 43]: under 600 nM.
As for `CCc1ccc(NC(=O)NCc2ccc3c(c2)C(=O)N(C2CCC(=O)NC2=O)C3)cc1` (stereo not drawn) [Compound 18], the IC50 is under 600 nM.
`C[C@@H](NC(=O)NCc1ccc2c(c1)C(=O)N(C1CCC(=O)NC1=O)C2)c1ccccc1` (stereo partly drawn) [Compound 54]: the IC50 was under 600 nM.
Same read-out and setting: next, `COc1ccc(NC(=O)NCc2ccc3c(c2)C(=O)N(C2CCC(=O)NC2=O)C3)cc1` (stereo not drawn) [Compound 5]: under 600 nM; `Cc1cccc(NC(=O)NCc2ccc3c(c2)C(=O)N(C2CCC(=O)NC2=O)C3)c1C` (stereo not drawn) [Compound 44]: under 600 nM.
Take `Cc1c(Cl)cccc1NC(=O)NCc1ccc2c(c1)C(=O)N(C1CCC(=O)NC1=O)C2` (stereo not drawn) [Compound 19]: the IC50 was under 600 nM.
As to `O=C1CCC(N2Cc3ccc(CNC(=O)Nc4cc(Cl)cc(Cl)c4)cc3C2=O)C(=O)N1` (stereo not drawn) [Compound 38], the IC50 is under 600 nM.
On the same count and under the same terms, for `COc1cccc(CNC(=O)NCc2ccc3c(c2)C(=O)N(C2CCC(=O)NC2=O)C3)c1` (stereo not drawn) [Compound 53] the value was under 600 nM; for `CCc1ccccc1NC(=O)NCc1ccc2c(c1)C(=O)N(C1CCC(=O)NC1=O)C2` (stereo not drawn) [Compound 36], under 600 nM.
On to `Cc1ccccc1NC(=O)NCc1ccc2c(c1)C(=O)N(C1CCC(=O)NC1=O)C2` (stereo not drawn) [Compound 37], for which the IC50 was under 600 nM.
On to `O=C1CCC(N2Cc3ccc(CNC(=O)NCC4CCCCC4)cc3C2=O)C(=O)N1` (stereo not drawn) [Compound 58], for which the IC50 was under 600 nM.
As for `CC(C)(C)c1ccc(NC(=O)NCc2ccc3c(c2)C(=O)N(C2CCC(=O)NC2=O)C3)cc1` (stereo not drawn) [Compound 56], the IC50 was under 600 nM.
The same measure, in the same setting: next, `O=C1CCC(N2Cc3ccc(CNC(=O)Nc4ccc(F)c(F)c4)cc3C2=O)C(=O)N1` (stereo not drawn) [Compound 39]: under 600 nM; `CC(C)(C)c1ccccc1NC(=O)NCc1ccc2c(c1)C(=O)N(C1CCC(=O)NC1=O)C2` (stereo not drawn) [Compound 11]: under 600 nM.
On the same count and under the same terms, for `COc1ccc(NC(=O)NCc2ccc3c(c2)C(=O)N(C2CCC(=O)NC2=O)C3)c(C)c1` (stereo not drawn) [Compound 23] the value was under 600 nM.
As for `Cc1ccc(NC(=O)NCc2ccc3c(c2)C(=O)N(C2CCC(=O)NC2=O)C3)cc1` (stereo not drawn) [Compound 21], the IC50 is under 600 nM.
Same read-out and setting: for `O=C1CCC(N2Cc3ccc(CNC(=O)Nc4ccc(C(F)(F)F)cc4)cc3C2=O)C(=O)N1` (stereo not drawn) [Compound 41] the value was under 600 nM; for `O=C1CCC(N2Cc3ccc(CNC(=O)NC4CCCc5ccccc54)cc3C2=O)C(=O)N1` (stereo not drawn) [Compound 40], under 600 nM; for `Cc1ccc(F)cc1NC(=O)NCc1ccc2c(c1)C(=O)N(C1CCC(=O)NC1=O)C2` (stereo not drawn) [Compound 62], under 600 nM.
`O=C1CCC(N2Cc3ccc(CNC(=O)Nc4ccc(Cl)cc4Cl)cc3C2=O)C(=O)N1` (stereo not drawn) [Compound 45]: the IC50 was under 600 nM.
On the same count and under the same terms, next, `COc1ccc(CNC(=O)NCc2ccc3c(c2)C(=O)N(C2CCC(=O)NC2=O)C3)cc1` (stereo not drawn) [Compound 52]: under 600 nM.
With `O=C1CCC(N2Cc3ccc(CNC(=O)Nc4ccc(F)c(Cl)c4)cc3C2=O)C(=O)N1` (stereo not drawn) [Compound 42], the IC50 was under 600 nM.

In general, IC50 refers to the concentration at which inhibition is half-maximal.
